IC50 data for ten compounds are collected here from patent publication US8609666B2, “2-morpholino-pyrido[3,2-D]pyrimidines” (Merck Serono SA, priority 2009, dated 2013).

The target of one assay is CK2 protein kinase. As to conditions: Fruman et al., 1998; cited from earlier work.
Assay [1] has as its system Human recombinant GST-PI3K. Put plainly: PI3K induced-lipid phosphorylation scintillation proximity assay (neomycin-coated SPA beads). It is filed as biochemical. As to conditions: amount necessary to achieve 50% inhibition of PI3K; 120 min at room temperature.

Consider `O=c1cc(N2CCOCC2)oc2c(-c3ccccc3)cccc12` [LY294002], for which the IC50 on CK2 protein kinase is 5 to 10 µM.

Consider `COCCN(C)c1cc(C(=O)O)nc2c(-c3ccc(CO)cc3)nc(N3CCOCC3)nc12` [Example 22, 4-(4-Hydroxymethyl-phenyl)-8-[(2-methoxy-ethyl)-methyl-amino]-2-morpholin-4-yl-pyrido[3,2-d]pyrimidine-6-carboxylic acid], for which, in assay [1], the concentration for half-maximal inhibition (IC50) is 546 nM.

Take `COCc1cccc(-c2nc(N3CCOCC3)nc3c(N(C)CCO)cc(C(=O)O)nc23)c1` [Example 27, 8-[(2-Hydroxy-ethyl)-methyl-amino]-4-(3-methoxymethyl-phenyl)-2-morpholin-4-yl-pyrido[3,2-d]pyrimidine-6-carboxylic acid]: the IC50 in assay [1] turned out to be 1850 nM.

As for `CN(C)c1cc(C(=O)O)nc2c(-c3ccc(F)cc3O)nc(N3CCOCC3)nc12` [Example 52, 8-(Dimethylamino)-4-(4-fluoro-2-hydroxyphenyl)-2-morpholin-4-ylpyrido[3,2-d]pyrimidine-6-carboxylic acid], the IC50 in assay [1] was 83 nM.

Consider `O=C(O)c1ccc2nc(N3CCOCC3)nc(-c3cccc(O)c3)c2n1` [Example 41, 4-(3-Hydroxyphenyl)-2-morpholin-4-ylpyrido[3,2-d]pyrimidine-6-carboxylic acid], for which the 50% inhibitory concentration (IC50) in assay [1] was 63 nM.

Take `COCCNc1cc(C(=O)O)nc2c(-c3cc(F)ccc3O)nc(N3CCOCC3)nc12` [Example 31, 4-(5-Fluoro-2-hydroxyphenyl)-8-[(2-methoxyethyl)amino]-2-morpholin-4-ylpyrido[3,2-d]pyrimidine-6-carboxylic acid]: the IC50 in assay [1] came to 73 nM.

With `COCc1cccc(-c2nc(N3CCOCC3)nc3c(N(C)C)cc(C(=O)O)nc23)c1` [Example 25, 8-Dimethylamino-4-(3-methoxymethyl-phenyl)-2-morpholin-4-yl-pyrido[3,2-d]pyrimidine-6-carboxylic acid], the IC50 in assay [1] worked out at 5050 nM.

Take `COCCN(C)c1cc(C(=O)O)nc2c(-c3cccc(O)c3)nc(N3CCOCC3)nc12` [Example 10, 4-(3-Hydroxy-phenyl)-8-[(2-methoxy-ethyl)-methyl-amino]-2-morpholin-4-yl-pyrido[3,2-d]pyrimidine-6-carboxylic acid]: the IC50 in assay [1] is 28 nM.

Take `CN(C)c1cc(C(=O)O)nc2c(-c3cc(F)ccc3O)nc(N3CCOCC3)nc12` [Example 29, 8-(Dimethylamino)-4-(5-fluoro-2-hydroxyphenyl)-2-morpholin-4-ylpyrido[3,2-d]pyrimidine-6-carboxylic acid]: the IC50 in assay [1] turned out to be 66 nM.

Consider `CNc1cc(C(=O)O)nc2c(-c3cccc4[nH]ccc34)nc(N3CCOCC3)nc12` [Example 18, 4-(1 H-Indol-4-yl)-8-methylamino-2-morpholin-4-yl-pyrido[3,2-d]pyrimidine-6-carboxylic acid], for which the IC50 in assay [1] stood at 780 nM.
